Laboratory results reported in patent US20080103205A1, “Pesticidal compositions and methods of use” (priority 2006, published 2008).
Read-outs that look alike come from different tables or passages of the source.

What was measured:
Assay type in all cases: in vivo
Meloidogyne incognita = experiment: Toxicity test, J2 juveniles of Meloidogyne incognita, 96 well micro plate; conditions: Meloidogyne incognita
Protocol: (§1) Methodology: Toxicity tests were conducted using J2 juveniles of Meloidogyne incognita adult Caenorhabditis elegans collected from nematode-infested tomato plant roots and culture Petri plates, respectively. Test concentrations of 50, 100, 200, 300, or 400 ppm were prepared in 0.2% dimethylsulfoxide (DMSO) in tap water. Aliquots (300 microliters (ul)) were applied to a 96 well micro plate and a 20 ul aqueous solution containing nematodes was added. The number of nematodes in 20 ul ranged from 17 to 30. Micro plates were sealed with Parafilm™ and incubated at room temperature. Similar tests conducted with 0.2% DMSO in tap water served as controls. Nematode mortality was checked at 24, 48, 72, 120, and 168 hr after incubation. Nematodes that were motionless for 30 sec when observed under a stereomicroscope were considered paralyzed and included in mortality counts. Each concentration was replicated five times and mean percent mortality was calculated after correcting for control mortality using Abbott's formula.
(§2) Data Analysis: Mortality data were analyzed using PROC PROBIT (SAS) program and LC50 values were estimated.

Drosophila melanogaster = experiment: Toxicity against adult Drosophila melanogaster, sugar solution feeding
Protocol: Toxicity tests were conducted using mixed sex adults of D. melanogaster maintained on artificial diet in the department of entomology, Virginia Tech. Test concentrations of 6.25, 12.5, 25, 50 or 100 ppm were prepared in 0.2% dimethyl sulfoxide (DMSO) for DIDS, 9-AC, NPPB, and IAA-94. The above final concentrations were obtained after mixing them in 10 ml of 10% sugar solution. Similar preparations with 0.2% DMSO alone served as controls. One end of a cotton wick was dipped in 0.5 ml of sugar solution and placed on the glass vial containing 10 adult flies of mixed sex. Each concentration of test chemical had 5 replications. Mortality counts of flies were taken 24, 48, and 72 hrs after treatment. Insects without movement upon probing were considered dead. LC50 values and confidence intervals for each chemical were estimated using POLO PLUS software program. The data provided in Tables 3-A and 3-B below confirm that AT blockers are toxic to insects in acute exposures.

Caenorhabditis elegans = experiment: Toxicity test, adult Caenorhabditis elegans, 96 well micro plate; conditions: Caenorhabditis elegans
Protocol: as §1, §2

[1] = 24 h, read-out: Corrected Mortality (%)
[2] = 48 h, read-out: Corrected Mortality (%)
[3] = 72 h, read-out: Corrected Mortality (%)
[4] = 120 h, read-out: Corrected Mortality (%)
[5] = 168 h, read-out: Corrected Mortality (%)

CC1(C2CCCC2)Cc2cc(OCC(=O)O)c(Cl)c(Cl)c2C1=O (single isomer, unassigned; (+)) [IAA-94, (+)(2-cyclopentyl-6,7-dichloro-2-methyl-1-oxo-5-indanyloxy) acetic acid]
mortality at 50 ppm (Meloidogyne incognita; 24 h): 8% | mortality at 100 ppm (Meloidogyne incognita; 24 h): 10% | mortality at 200 ppm (Meloidogyne incognita; 24 h): 14% | mortality at 300 ppm (Meloidogyne incognita; 24 h): 20% | mortality at 400 ppm (Meloidogyne incognita; 24 h): 24% | mortality at 50 ppm (Meloidogyne incognita; [1]): 5% | mortality at 100 ppm (Meloidogyne incognita; [1]): 7% | mortality at 200 ppm (Meloidogyne incognita; [1]): 11% | mortality at 300 ppm (Meloidogyne incognita; [1]): 19% | mortality at 400 ppm (Meloidogyne incognita; [1]): 22% | mortality at 50 ppm (Meloidogyne incognita; 48 h): 17% | mortality at 100 ppm (Meloidogyne incognita; 48 h): 22% | mortality at 200 ppm (Meloidogyne incognita; 48 h): 34% | mortality at 300 ppm (Meloidogyne incognita; 48 h): 38% | mortality at 400 ppm (Meloidogyne incognita; 48 h): 43% | mortality at 50 ppm (Meloidogyne incognita; [2]): 12% | mortality at 100 ppm (Meloidogyne incognita; [2]): 17% | mortality at 200 ppm (Meloidogyne incognita; [2]): 30% | mortality at 300 ppm (Meloidogyne incognita; [2]): 34% | mortality at 400 ppm (Meloidogyne incognita; [2]): 39% | mortality at 50 ppm (Meloidogyne incognita; 72 h): 30% | mortality at 100 ppm (Meloidogyne incognita; 72 h): 38% | mortality at 200 ppm (Meloidogyne incognita; 72 h): 61% | mortality at 300 ppm (Meloidogyne incognita; 72 h): 65% | mortality at 400 ppm (Meloidogyne incognita; 72 h): 70% | mortality at 50 ppm (Meloidogyne incognita; [3]): 22% | mortality at 100 ppm (Meloidogyne incognita; [3]): 31% | mortality at 200 ppm (Meloidogyne incognita; [3]): 57% | mortality at 300 ppm (Meloidogyne incognita; [3]): 61% | mortality at 400 ppm (Meloidogyne incognita; [3]): 67% | mortality at 50 ppm (Meloidogyne incognita; 120 h): 51% | mortality at 100 ppm (Meloidogyne incognita; 120 h): 61% | mortality at 200 ppm (Meloidogyne incognita; 120 h): 83% | mortality at 300 ppm (Meloidogyne incognita; 120 h): 90% | mortality at 400 ppm (Meloidogyne incognita; 120 h): 97% | mortality at 50 ppm (Meloidogyne incognita; [4]): 45% | mortality at 100 ppm (Meloidogyne incognita; [4]): 56% | mortality at 200 ppm (Meloidogyne incognita; [4]): 81% | mortality at 300 ppm (Meloidogyne incognita; [4]): 89% | mortality at 400 ppm (Meloidogyne incognita; [4]): 97% | mortality at 50 ppm (Meloidogyne incognita; 168 h): 74% | mortality at 100 ppm (Meloidogyne incognita; 168 h): 85% | mortality at 200 ppm (Meloidogyne incognita; 168 h): 99% | mortality at 300 ppm (Meloidogyne incognita; 168 h): 100% | mortality at 400 ppm (Meloidogyne incognita; 168 h): 100% | mortality at 50 ppm (Meloidogyne incognita; [5]): 71% | mortality at 100 ppm (Meloidogyne incognita; [5]): 83% | mortality at 200 ppm (Meloidogyne incognita; [5]): 99% | mortality at 300 ppm (Meloidogyne incognita; [5]): 100% | mortality at 400 ppm (Meloidogyne incognita; [5]): 100% | LC50 (ppm) (Drosophila melanogaster; 48 hr): 170.05 ppm | LC50 (ppm) (Drosophila melanogaster; 72 hr): 115.67 ppm | mortality at 50 ppm (Caenorhabditis elegans; 24 h): 8% | mortality at 100 ppm (Caenorhabditis elegans; 24 h): 14% | mortality at 200 ppm (Caenorhabditis elegans; 24 h): 17% | mortality at 300 ppm (Caenorhabditis elegans; 24 h): 21% | mortality at 400 ppm (Caenorhabditis elegans; 24 h): 24% | mortality at 50 ppm (Caenorhabditis elegans; [1]): 5% | mortality at 100 ppm (Caenorhabditis elegans; [1]): 11% | mortality at 200 ppm (Caenorhabditis elegans; [1]): 14% | mortality at 300 ppm (Caenorhabditis elegans; [1]): 19% | mortality at 400 ppm (Caenorhabditis elegans; [1]): 22% | mortality at 50 ppm (Caenorhabditis elegans; 48 h): 17% | mortality at 100 ppm (Caenorhabditis elegans; 48 h): 29% | mortality at 200 ppm (Caenorhabditis elegans; 48 h): 38% | mortality at 300 ppm (Caenorhabditis elegans; 48 h): 43% | mortality at 400 ppm (Caenorhabditis elegans; 48 h): 48% | mortality at 50 ppm (Caenorhabditis elegans; [2]): 13% | mortality at 100 ppm (Caenorhabditis elegans; [2]): 25% | mortality at 200 ppm (Caenorhabditis elegans; [2]): 35% | mortality at 300 ppm (Caenorhabditis elegans; [2]): 40% | mortality at 400 ppm (Caenorhabditis elegans; [2]): 45% | mortality at 50 ppm (Caenorhabditis elegans; 72 h): 35% | mortality at 100 ppm (Caenorhabditis elegans; 72 h): 44% | mortality at 200 ppm (Caenorhabditis elegans; 72 h): 64% | mortality at 300 ppm (Caenorhabditis elegans; 72 h): 71% | mortality at 400 ppm (Caenorhabditis elegans; 72 h): 77% | mortality at 50 ppm (Caenorhabditis elegans; [3]): 31% | mortality at 100 ppm (Caenorhabditis elegans; [3]): 40% | mortality at 200 ppm (Caenorhabditis elegans; [3]): 62% | mortality at 300 ppm (Caenorhabditis elegans; [3]): 69% | mortality at 400 ppm (Caenorhabditis elegans; [3]): 76% | mortality at 50 ppm (Caenorhabditis elegans; 120 h): 58% | mortality at 100 ppm (Caenorhabditis elegans; 120 h): 70% | mortality at 200 ppm (Caenorhabditis elegans; 120 h): 90% | mortality at 300 ppm (Caenorhabditis elegans; 120 h): 94% | mortality at 400 ppm (Caenorhabditis elegans; 120 h): 98% | mortality at 50 ppm (Caenorhabditis elegans; [4]): 53% | mortality at 100 ppm (Caenorhabditis elegans; [4]): 67% | mortality at 200 ppm (Caenorhabditis elegans; [4]): 89% | mortality at 300 ppm (Caenorhabditis elegans; [4]): 93% | mortality at 400 ppm (Caenorhabditis elegans; [4]): 98% | mortality at 50 ppm (Caenorhabditis elegans; 168 h): 81% | mortality at 100 ppm (Caenorhabditis elegans; 168 h): 94% | mortality at 200 ppm (Caenorhabditis elegans; 168 h): 99% | mortality at 300 ppm (Caenorhabditis elegans; 168 h): 100% | mortality at 400 ppm (Caenorhabditis elegans; 168 h): 100% | mortality at 50 ppm (Caenorhabditis elegans; [5]): 78% | mortality at 100 ppm (Caenorhabditis elegans; [5]): 93% | mortality at 200 ppm (Caenorhabditis elegans; [5]): 99% | mortality at 300 ppm (Caenorhabditis elegans; [5]): 100% | mortality at 400 ppm (Caenorhabditis elegans; [5]): 100%
